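Five compound concentrations were applied to cells in 96-well plates for 48 hours; endpoints were derived by simple linear interpolation of the resulting dose-response curve. The concentration for 50% growth inhibition is given as GI50.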 Active and inactive are the calls of the source. No stated cut-off is given here; in the data, active = GI50 up to about 1.1 µM and inactive = higher.
What was measured:
Experiment in all cases: NCI tumour cell line growth inhibition, 48 h
DMS-273 = tested on: DMS-273
LXFL 529 = tested on: LXFL 529
DMS-114 = tested on: DMS-114
KM-20L2 = tested on: KM-20L2
M19-MEL = tested on: M19-MEL
Hs-578T = tested on: Hs-578T
BT-549 = tested on: BT-549
XF498 = tested on: XF498

SMILES	GI50 (DMS-273)	GI50 (LXFL 529)	GI50 (DMS-114)	GI50 (KM-20L2)	GI50 (M19-MEL)	GI50 (Hs-578T)	GI50 (BT-549)	GI50 (XF498)
C/C=C(\C)c1cc(O)c(C)c2c1Oc1cc(O)c(Cl)c(C)c1C(=O)O2	34.1 µM (inactive)	24.8 µM (inactive)	29.6 µM (inactive)	20.7 µM (inactive)	34 µM (inactive)			
CC(=O)N(CN1C(=O)CCC1C(=O)O)c1ccccc1Cl (stereo unspecified)						> 100 µM (inactive)		
COc1c(C2(c3ccc(F)cc3)SCCCS2)c(=O)c1=O						> 100 µM (inactive)	> 100 µM (inactive)	
Cc1c(Cl)cccc1NC(=O)CC1C(=O)Nc2ccccc2S1(=O)=O (stereo unspecified)	7.69 µM (inactive)	15.3 µM (inactive)	16.5 µM (inactive)	22.4 µM (inactive)	20.4 µM (inactive)			15.2 µM (inactive)
CCOC(=O)[C@@H]1ON2O[C@@H](OC3CCCCC3c3ccccc3)C[C@H]3OC(=O)[C@@H]1C32 (stereo partly specified)						> 100 µM (inactive)		
CCOC(=O)Oc1ccc2c(c1)c(=O)c1c(NCCN(CC)CC)ccc3nnn2c31						5.11 µM (inactive)	10.5 µM (inactive)	
CC(C)N(C(=O)C12C3C4C5(C#N)C3C1(C#N)C5C42C#N)C(C)C (stereo unspecified)	> 100 µM (inactive)	> 100 µM (inactive)	> 100 µM (inactive)	> 100 µM (inactive)	> 100 µM (inactive)			> 100 µM (inactive)
O=C1OC[C@H]2[C@@H]1[C@H]1O[C@@H]2C2=C(CCC2)C1=O						> 100 µM (inactive)	> 100 µM (inactive)	
O=S(=O)(NC1OCCCC1I)c1ccccc1 (stereo unspecified)						> 100 µM (inactive)	> 100 µM (inactive)	
COc1ccc(-c2c3c(n(C4OC(CO)C(O)C(O)C4O)c(=S)c2C#N)CCCC3)cc1 (stereo unspecified)						> 100 µM (inactive)		
CC(=O)N1C(CCc2ccccc2)CC(C)(C=O)C1Cc1ccc(O[Si](C(C)C)(C(C)C)C(C)C)cc1 (stereo unspecified)						3.28 µM (inactive)	15.6 µM (inactive)	
Cc1ccc(/N=N/c2ccc(O)c(CN(C)C)c2)cc1C						16.4 µM (inactive)	25.6 µM (inactive)	
O=C1CC2OCC=C3CN4CCC5(C(=O)O)C(N1)C2C3CC45 (stereo unspecified)						> 100 µM (inactive)	> 100 µM (inactive)	
CC1OC(OC2C(O[C@H]3CC[C@@]4(C)C(=CC[C@H]5[C@@H]6C[C@@H]7O[C@]8(CC[C@@H](CO)CO8)[C@@H](C)[C@@H]7[C@@]6(C)CC[C@@H]54)C3)OC(CO)C(O)C2OC2OC(CO)C(O)C(O)C2O)C(O)C(O)C1O (stereo partly specified)						2.91 µM (inactive)	> 10 µM (inactive)	
CCCCCCCC(=O)OC[n+]1cccc(-c2c(COC(=O)NC(C)C)c(COC(=O)NC(C)C)c3n2CCC3)c1						> 100 µM (inactive)	> 84.5 µM (inactive)	
COc1ccc(Nc2nc3ccc(C(F)(F)F)cc3nc2C(=O)O)cc1OC						38.6 µM (inactive)	22.5 µM (inactive)	

SMILES	GI50 (DMS-273)	GI50 (LXFL 529)	GI50 (DMS-114)	GI50 (KM-20L2)	GI50 (M19-MEL)	GI50 (Hs-578T)	GI50 (BT-549)	GI50 (XF498)
O=C(N/N=C\c1ccc([N+](=O)[O-])s1)c1ccncc1						15.8 µM (inactive)	11.3 µM (inactive)	
Cc1c2cnccc2c(C)c2c1c1ccccc1n2CCCN	0.133 µM (active)		0.31 µM (active)	0.183 µM (active)	0.262 µM (active)	0.374 µM (active)	1.46 µM (inactive)	0.713 µM (active)
CCN1CCC(O)(/C=C/c2ccc(Cl)cc2)C(C(=O)/C=C/c2ccc(Cl)cc2)C1 (stereo unspecified)	28.4 µM (inactive)	14.7 µM (inactive)	26.6 µM (inactive)	32.1 µM (inactive)	29.9 µM (inactive)			81.1 µM (inactive)
CC1(C(=O)O)CCOc2ccccc21 (stereo unspecified)		> 100 µM (inactive)	> 100 µM (inactive)	> 100 µM (inactive)	> 100 µM (inactive)			
CC1=C(CCC(C)CO)O[C@H]2C[C@H]3[C@@H]4CC[C@H]5C[C@@H](O)CC[C@]5(C)[C@H]4CC(=O)[C@]3(C)[C@@H]12 (stereo partly specified)						17.1 µM (inactive)	16 µM (inactive)	
COC(=O)C(=O)C(C(=O)C(=O)Nc1ccc(C)c(C)c1)c1nc2ccc([N+](=O)[O-])cc2nc1O (stereo unspecified)						> 100 µM (inactive)	> 100 µM (inactive)	
O=[N+]([O-])c1cccc(-c2nc(-c3ccccc3)c(-c3ccccc3)[nH]2)c1						> 100 µM (inactive)		
C[NH+]1[C@@H](Cc2ccccc2)C(=O)O[B-]1(F)c1ccccc1 (stereo partly specified)							> 100 µM (inactive)	
CC1C(=O)N(C)C2(CO)C(=O)O[C@H](C)C12O (stereo partly specified)			> 100 µM (inactive)		> 100 µM (inactive)			
CC1CC2OC(=O)C3CC(O)CC(=C23)[C@@]12C[C@@H](c1ccoc1)OC2=O (stereo partly specified)	> 100 µM (inactive)	> 100 µM (inactive)		> 100 µM (inactive)	> 100 µM (inactive)			> 100 µM (inactive)
CCC12C=CCN3CC[C@]4(C(=C(C(=O)OC)[C@@H]1Nc1ncnc5c1ncn5C1OC(COC(C)=O)C(OC(C)=O)C1OC(C)=O)Nc1ccccc14)C32 (stereo partly specified)	2.75 µM (inactive)	2.4 µM (inactive)	1.91 µM (inactive)	2.71 µM (inactive)	1.99 µM (inactive)			3 µM (inactive)
NC(=O)c1csc(C2OC(CO)C(O)C2O)n1 (stereo unspecified)	30.8 µM (inactive)		61.1 µM (inactive)	43.8 µM (inactive)	29 µM (inactive)	44.7 µM (inactive)	885 µM (inactive)	67.8 µM (inactive)
COc1ccc(-c2nc(O)c3ccccc3n2)cc1						2.44 µM (inactive)	83.9 µM (inactive)	
Clc1ccc(C(c2ccc(Cl)cc2)N2CCNCC2)cc1						2.74 µM (inactive)	16.9 µM (inactive)	
CO[C@@H]1C[C@H](OC(N)=O)[C@@H]2C=C[C@@H]3/C=C(C)/C=C/[C@@H](C)[C@H](/C(C)=C/[C@@H](C)NC(C)=O)OC(=O)/C=C/C=C(C)\C=C\[C@]3(C)[C@@H]2C1 [SUPERSTOLIDE B]						< 0.005 µM (active)	0.224 µM (active)	

Reference: ChEMBL document CHEMBL1201862, “PubChem BioAssay data set” (2004)
